Source: US11155556B2, “Pyrimido-diazepinone kinase scaffold compounds and methods for treating PI3K-mediated disorders” (DANA-FARBER CANCER INSTITUTE, INC., priority 2016, dated 2021)

What was measured:
PI3K-γ = PI3K-γ (Homo sapiens (Human), UniProt P48736); assay: ADAPTA kinase assay, PI3K-γ; format: biochemical; settings: ADAPTA assay format; for IC50: ATP at Km
Method: (§1) The enzymatic activities against PI3K-α, PI3K-β, PI3K-γ and PI3K-δ were tested in ADAPTA assays. Activity against […] were tested in Z′-Lyte assays. All assays were performed with ATP concentrations of Km for each kinase. BRD4_1 binding was tested using an AlphaScreen assay. All protocols are available from Life Technologies.
as §1, with “against PI3K-α, PI3K-γ and” for “against PI3K-α, PI3K-β, PI3K-γ and”, “assay. All the protocols are” for “assay. All protocols are”

PI3K-δ = PI3K-δ (Homo sapiens (Human), UniProt O00329); assay: ADAPTA kinase assay, PI3K-δ; format: biochemical; settings: ADAPTA assay format; for IC50: ATP at Km
PI3K-δ, sequence (O00329 whole entry): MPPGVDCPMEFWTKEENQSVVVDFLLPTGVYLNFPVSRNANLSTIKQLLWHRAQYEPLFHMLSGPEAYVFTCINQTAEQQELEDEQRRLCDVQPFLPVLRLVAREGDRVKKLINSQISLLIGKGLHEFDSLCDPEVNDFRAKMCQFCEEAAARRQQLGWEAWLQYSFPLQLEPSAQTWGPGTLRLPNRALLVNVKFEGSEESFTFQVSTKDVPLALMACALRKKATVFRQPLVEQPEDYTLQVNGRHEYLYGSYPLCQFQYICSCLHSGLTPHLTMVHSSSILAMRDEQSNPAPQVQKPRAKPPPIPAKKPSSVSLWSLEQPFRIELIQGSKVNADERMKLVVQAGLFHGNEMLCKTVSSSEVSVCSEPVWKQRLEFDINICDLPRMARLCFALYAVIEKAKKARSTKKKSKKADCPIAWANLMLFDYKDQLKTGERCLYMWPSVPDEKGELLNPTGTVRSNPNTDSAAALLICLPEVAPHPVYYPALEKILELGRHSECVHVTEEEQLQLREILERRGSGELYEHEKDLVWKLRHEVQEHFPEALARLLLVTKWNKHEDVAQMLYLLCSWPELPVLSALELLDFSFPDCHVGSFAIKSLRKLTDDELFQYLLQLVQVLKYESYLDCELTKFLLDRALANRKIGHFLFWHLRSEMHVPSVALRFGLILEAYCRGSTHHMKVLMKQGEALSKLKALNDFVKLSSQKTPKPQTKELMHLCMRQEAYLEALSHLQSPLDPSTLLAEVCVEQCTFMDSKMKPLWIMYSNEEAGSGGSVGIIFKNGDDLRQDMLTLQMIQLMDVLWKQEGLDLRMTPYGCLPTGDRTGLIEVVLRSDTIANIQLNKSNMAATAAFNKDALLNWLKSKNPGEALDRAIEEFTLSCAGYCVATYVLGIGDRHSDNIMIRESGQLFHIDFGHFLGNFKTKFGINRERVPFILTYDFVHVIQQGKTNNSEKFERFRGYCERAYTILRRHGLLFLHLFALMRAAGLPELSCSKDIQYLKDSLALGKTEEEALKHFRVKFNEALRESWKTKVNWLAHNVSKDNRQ
PI3K-δ, sequence (P27986 whole entry partner): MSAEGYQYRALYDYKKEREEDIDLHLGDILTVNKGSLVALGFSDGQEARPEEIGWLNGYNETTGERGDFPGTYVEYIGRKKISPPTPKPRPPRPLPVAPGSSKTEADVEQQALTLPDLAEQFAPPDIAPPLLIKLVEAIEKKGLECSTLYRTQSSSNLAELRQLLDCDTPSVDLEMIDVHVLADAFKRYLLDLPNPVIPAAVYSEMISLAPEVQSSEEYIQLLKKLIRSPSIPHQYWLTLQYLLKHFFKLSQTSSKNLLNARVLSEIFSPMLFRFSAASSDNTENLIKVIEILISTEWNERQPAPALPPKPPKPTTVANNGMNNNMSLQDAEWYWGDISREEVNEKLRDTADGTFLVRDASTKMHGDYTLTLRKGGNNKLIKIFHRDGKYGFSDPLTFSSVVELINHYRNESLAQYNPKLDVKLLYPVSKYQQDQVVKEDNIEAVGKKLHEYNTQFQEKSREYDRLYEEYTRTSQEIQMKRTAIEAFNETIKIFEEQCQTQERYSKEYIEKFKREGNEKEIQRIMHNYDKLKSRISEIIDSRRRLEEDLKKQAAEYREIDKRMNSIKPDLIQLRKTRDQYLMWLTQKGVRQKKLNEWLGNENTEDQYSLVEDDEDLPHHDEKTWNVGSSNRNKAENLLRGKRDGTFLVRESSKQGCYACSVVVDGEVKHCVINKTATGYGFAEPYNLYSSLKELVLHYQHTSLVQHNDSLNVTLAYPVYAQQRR
Method: as §1
as §1, with “against PI3K-α, PI3K-γ and” for “against PI3K-α, PI3K-β, PI3K-γ and”, “assay. All the protocols are” for “assay. All protocols are”

Aurora A = Aurora A (Homo sapiens (Human), UniProt O14965); assay: Z'-LYTE kinase assay, Aurora A; format: biochemical; settings: Z'LYTE assay format, ATP at Km
Aurora A, sequence (O14965 whole entry): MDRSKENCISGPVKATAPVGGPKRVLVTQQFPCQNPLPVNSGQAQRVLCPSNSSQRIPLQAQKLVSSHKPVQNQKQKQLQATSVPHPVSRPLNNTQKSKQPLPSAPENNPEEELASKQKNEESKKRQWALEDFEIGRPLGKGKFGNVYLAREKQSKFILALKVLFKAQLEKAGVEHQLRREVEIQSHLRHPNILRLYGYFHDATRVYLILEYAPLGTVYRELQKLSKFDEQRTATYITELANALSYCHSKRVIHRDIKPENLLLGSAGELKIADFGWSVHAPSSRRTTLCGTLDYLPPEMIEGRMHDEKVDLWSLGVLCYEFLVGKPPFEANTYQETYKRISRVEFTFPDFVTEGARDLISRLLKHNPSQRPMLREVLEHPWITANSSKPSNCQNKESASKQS
Method: The enzymatic activities against PI3K-α, PI3K-β, PI3K-γ and PI3K-δ were tested in ADAPTA assays. […] All assays were performed with ATP concentrations of Km for each kinase. BRD4_1 binding was tested using an AlphaScreen assay. All protocols are available from Life Technologies.
The enzymatic activities against PI3K-α, PI3K-γ and PI3K-δ were tested in ADAPTA assays. […] All assays were performed with ATP concentrations of Km for each kinase. BRD4_1 binding was tested using an AlphaScreen assay. All the protocols are available from Life Technologies.

Aurora B = Aurora B (Homo sapiens (Human), UniProt Q96GD4); assay: Z'-LYTE kinase assay, Aurora B; format: biochemical; settings: Z'LYTE assay format, ATP at Km
Aurora B, sequence (Q96GD4 whole entry): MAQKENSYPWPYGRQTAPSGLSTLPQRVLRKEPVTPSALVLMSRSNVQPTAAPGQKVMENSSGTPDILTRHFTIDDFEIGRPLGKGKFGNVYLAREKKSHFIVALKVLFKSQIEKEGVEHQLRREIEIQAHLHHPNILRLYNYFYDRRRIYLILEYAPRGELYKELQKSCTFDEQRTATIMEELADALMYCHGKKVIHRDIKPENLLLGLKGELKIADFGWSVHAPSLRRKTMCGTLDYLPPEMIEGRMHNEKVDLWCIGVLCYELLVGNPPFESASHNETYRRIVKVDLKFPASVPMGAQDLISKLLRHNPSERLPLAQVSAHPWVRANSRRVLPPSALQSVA
Method: as §1
as §1, with “against PI3K-α, PI3K-γ and” for “against PI3K-α, PI3K-β, PI3K-γ and”, “assay. All the protocols are” for “assay. All protocols are”

PI3K-α = PI3K-α (Homo sapiens (Human), UniProt P42336); assay: ADAPTA kinase assay, PI3K-α; format: biochemical; settings: ADAPTA assay format, ATP at Km
Method: as §1
as §1, with “against PI3K-α, PI3K-γ and” for “against PI3K-α, PI3K-β, PI3K-γ and”, “assay. All the protocols are” for “assay. All protocols are”

PI3K-β = PI3K-β (Homo sapiens (Human), UniProt P42338); assay: ADAPTA kinase assay, PI3K-β; format: biochemical; settings: ADAPTA assay format, ATP at Km
PI3K-β, sequence (P42338 whole entry): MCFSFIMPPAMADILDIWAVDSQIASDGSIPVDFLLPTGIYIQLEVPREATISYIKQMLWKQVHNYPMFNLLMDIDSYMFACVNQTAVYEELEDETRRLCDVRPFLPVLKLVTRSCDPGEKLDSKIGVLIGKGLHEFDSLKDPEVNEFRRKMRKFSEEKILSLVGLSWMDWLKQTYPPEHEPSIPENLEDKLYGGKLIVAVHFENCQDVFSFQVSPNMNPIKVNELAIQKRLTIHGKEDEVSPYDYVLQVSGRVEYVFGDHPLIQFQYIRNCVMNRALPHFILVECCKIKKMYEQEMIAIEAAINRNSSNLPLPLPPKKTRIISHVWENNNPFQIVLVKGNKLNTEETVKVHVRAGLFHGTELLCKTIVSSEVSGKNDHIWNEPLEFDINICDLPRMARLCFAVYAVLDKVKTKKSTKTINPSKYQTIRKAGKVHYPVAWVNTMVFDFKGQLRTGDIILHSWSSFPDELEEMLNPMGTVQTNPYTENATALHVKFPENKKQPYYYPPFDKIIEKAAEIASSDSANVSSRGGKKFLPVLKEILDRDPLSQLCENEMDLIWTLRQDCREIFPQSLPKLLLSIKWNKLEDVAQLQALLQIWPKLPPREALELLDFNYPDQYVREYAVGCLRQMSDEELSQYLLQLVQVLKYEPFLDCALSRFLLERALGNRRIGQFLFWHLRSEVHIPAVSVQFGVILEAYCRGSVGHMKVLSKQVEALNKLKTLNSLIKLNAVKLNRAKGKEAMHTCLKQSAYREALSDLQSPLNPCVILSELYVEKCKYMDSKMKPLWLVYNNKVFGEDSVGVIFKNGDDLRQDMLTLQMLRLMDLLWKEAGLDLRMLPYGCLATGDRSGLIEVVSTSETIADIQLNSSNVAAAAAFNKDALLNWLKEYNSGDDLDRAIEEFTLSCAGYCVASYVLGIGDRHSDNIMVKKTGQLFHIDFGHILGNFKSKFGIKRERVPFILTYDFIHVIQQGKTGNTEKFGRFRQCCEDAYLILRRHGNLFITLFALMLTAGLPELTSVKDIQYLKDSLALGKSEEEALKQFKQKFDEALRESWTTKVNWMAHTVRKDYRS
PI3K-β, sequence (P27986 whole entry partner): as the sequence (P27986 whole entry partner) above
Method: as §1
as §1, with “against PI3K-α, PI3K-γ and” for “against PI3K-α, PI3K-β, PI3K-γ and”, “assay. All the protocols are” for “assay. All protocols are”

Jurkat cells = assay: CellTiter-Glo proliferation / cell viability assay, Jurkat; format: cell-based; settings: Homo sapiens, 72 h, 3 days, average of three replicates
Method: (§2) Proliferation assays were conducted in Jurkat or MOLT4 cell lines using Cell Titer Glo as described in product manual.
(§3) Cell viability assays were performed using CellTiter-Glo (Promega). Cells were grown in RPMI-10% FBS medium. 600 cells per well were seeded in a 96-well plate and then treated with eight doses of each compound in 3-fold dilution steps ranging from 10 um to 0.0046 uM for 3 days. Wells were imaged using a luminometer. IC50 were determined using Prism software. Data was normalized to a dimethyl sulfoxide (DMSO)-only control.

MOLT4 cells = assay: CellTiter-Glo proliferation / cell viability assay, MOLT4; format: cell-based; settings: Homo sapiens, MOLT-4, 72 h, 3 days, average of three replicates
Method: as §2, §3

MV4:11 cells = assay: CellTiter-Glo cell viability assay, MV4:11; format: cell-based; settings: Homo sapiens, MV4-11, 72 h, 3 days, average of three replicates
Method: as §3

Molm14 cells = assay: CellTiter-Glo cell viability assay, Molm14; format: cell-based; settings: Homo sapiens, MOLM-14, 72 h, 3 days, average of three replicates
Method: as §3

Loucy cells = assay: CellTiter-Glo cell viability assay, Loucy; format: cell-based; settings: 72 h, 3 days, average of three replicates
Method: as §3

[1] = tested on: patient-derived primary CLL cells; assay: CellTiter-Glo cell viability assay, patient-derived primary CLL cells; format: cell-based; settings: Homo sapiens
Method: The CellTiter-Glo assay (Promega) was used to determine the viability of cells from chronic lymphocytic leukemia (CLL) patients at baseline (primary human patient derived CLL cells), upon IgM stimulation, and after drug treatment. IgM stimulation was conducted using AffiniPure F(ab′)2 Fragment Goat Anti-Human IgM (Jackson ImmunoResearch). Cell viability results after drug treatment are presented in FIG. 7A (IgM-stimulated cells) and FIG. 7B (PBS control).

[2] = tested on: PI3K-δ signaling (HMEC expressing CA-p110δ); assay: PI3K cellular signaling assay in isogenic HMEC lines (Western blot); format: cell-based; settings: 10 nM concentration, FIG. 4C
Method: HMEC derivative cell lines were serum-starved for 3 hours, then treated with the indicated compounds at 0.01 μM, 0.1 μM, or 1 μM for 1 h. Cell lysates were prepared and subjected to Western blot assays with the indicated antibodies. Du, Duvelisib; Id, Idelalisib.
PI3K cellular signaling assays were performed as previously described (Reference 18).
HMEC derivative cells were cultured as described previously (Ni J, Liu Q, Xie S, et al. Functional characterization of an isoform-selective inhibitor of PI3K-p110beta as a potential anticancer agent. Cancer discovery. 2012; 2(5):425-433).
Western blot analysis was performed as previously described (Reference 1). Anti-phospho-AKT (Thr308) (#4056), anti-phospho-AKT (Ser473) (#4060), anti-AKT (#9272), anti-phospho-S6 ribosomal protein (Ser235/236) (#2211), anti-S6 ribosomal protein (#2217) antibodies were all from Cell Signaling Technology (Hanover, Mass.), and anti-α-tubulin antibody was from Sigma (Rockford, Ill.).

PI3K-γ, sequence (P48736 whole entry): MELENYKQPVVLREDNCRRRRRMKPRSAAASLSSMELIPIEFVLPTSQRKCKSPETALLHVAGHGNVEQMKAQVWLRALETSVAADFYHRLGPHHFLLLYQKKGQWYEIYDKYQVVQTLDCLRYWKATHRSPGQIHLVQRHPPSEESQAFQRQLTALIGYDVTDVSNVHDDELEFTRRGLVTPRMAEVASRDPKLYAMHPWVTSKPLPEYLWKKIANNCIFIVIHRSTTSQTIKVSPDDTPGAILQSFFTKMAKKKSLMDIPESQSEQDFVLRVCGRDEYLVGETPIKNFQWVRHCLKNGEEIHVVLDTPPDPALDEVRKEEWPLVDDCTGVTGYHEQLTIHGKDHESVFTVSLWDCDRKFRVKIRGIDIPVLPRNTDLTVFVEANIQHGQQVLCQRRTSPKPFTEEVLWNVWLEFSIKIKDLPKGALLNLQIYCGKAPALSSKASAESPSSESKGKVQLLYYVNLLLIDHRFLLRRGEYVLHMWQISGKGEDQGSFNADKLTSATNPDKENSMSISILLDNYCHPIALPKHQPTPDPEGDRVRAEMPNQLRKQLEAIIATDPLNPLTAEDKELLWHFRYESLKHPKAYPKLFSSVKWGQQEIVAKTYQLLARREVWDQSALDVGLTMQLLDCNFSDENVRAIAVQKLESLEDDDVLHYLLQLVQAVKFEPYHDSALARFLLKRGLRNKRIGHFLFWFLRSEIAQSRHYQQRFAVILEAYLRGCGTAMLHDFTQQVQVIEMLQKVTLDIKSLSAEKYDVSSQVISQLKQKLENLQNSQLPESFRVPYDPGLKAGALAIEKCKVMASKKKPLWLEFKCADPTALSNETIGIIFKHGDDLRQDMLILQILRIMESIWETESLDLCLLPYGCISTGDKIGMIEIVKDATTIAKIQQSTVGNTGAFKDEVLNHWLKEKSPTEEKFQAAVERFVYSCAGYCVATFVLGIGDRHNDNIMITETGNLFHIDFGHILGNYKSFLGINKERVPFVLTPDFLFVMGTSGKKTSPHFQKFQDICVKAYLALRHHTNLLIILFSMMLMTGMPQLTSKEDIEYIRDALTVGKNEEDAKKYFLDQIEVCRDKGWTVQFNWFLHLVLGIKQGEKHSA

Structure (SMILES) | IC50 (PI3K-γ) | IC50 (PI3K-δ) | IC50 (Aurora A) | IC50 (Aurora B) | other results
CN1C(=O)c2ccccc2N(C)c2nc(Nc3ccc(S(N)(=O)=O)cc3)ncc21 [Compound 16] | 49 nM | 14.5 nM | 4.8 nM | 13.3 nM | –
Cc1cc(S(N)(=O)=O)ccc1Nc1ncc2c(n1)N(C)c1ccccc1C(=O)N2C [Compound 18] | 822 nM | 2380 nM | 4850 nM | 9360 nM | –
C=CC(=O)N1CCN(S(=O)(=O)c2ccc(Nc3ncc4c(n3)N(C)c3ccc(C)cc3C(=O)N4C)cc2)CC1 [Compound 2, 2-((4-((4-acryloylpiperazin-1-yl)sulfonyl)phenyl)amino)-5,8,11-trimethyl-5,11-dihydro-6H-benzo[e]pyrimido[5,4-b][1,4]diazepin-6-one] | 231 nM | 112 nM | 23 nM | 16 nM | –
CN1C(=O)c2ccccc2N(C)c2nc(Nc3cccc(S(N)(=O)=O)c3)ncc21 [Compound 17] | 4 nM | 4 nM | 2 nM | 4 nM | –
C=CC(=O)Nc1ccc(NS(=O)(=O)c2cccc(Nc3ncc4c(n3)N(C)c3ccc(C)cc3C(=O)N4C)c2)cc1 [Compound 5, N-(4-((3-((5,8,11-trimethyl-6-oxo-6,11-dihydro-5H-benzo[e]pyrimido[5,4-b][1,4]diazepin-2-yl)amino)phenyl)sulfonamido)phenyl)acrylamide] | 29.3 nM | 15 nM | 272 nM | 290 nM | IC50 (PI3K-α): 728 nM; IC50 (PI3K-β): > 10000 nM
C[C@H](Nc1ncnc2nc[nH]c12)c1cc2cccc(Cl)c2c(=O)n1-c1ccccc1 [Duvelisib, reference compound] | – | – | – | – | potency in the PI3K-δ assay compared with clinical compounds (PI3K-δ; FIG. 4B): the most potent; IC50 (Jurkat cells): 1900 nM; IC50 (MOLT4 cells): 2300 nM; IC50 (MV4:11 cells): 4400 nM; IC50 (Molm14 cells): 1200 nM; IC50 (Loucy cells): 980 nM; IC50 [1]: > 10000 nM; inhibition of PI3K-δ signaling (AKT and S6RP phosphorylation) [2]: the most potent PI3K-δ inhibitor
Cc1ccc2c(c1)C(=O)N(C)c1cnc(Nc3cccc(S(=O)(=O)N4CCN(C)CC4)c3)nc1N2C [Compound 10] | 50.7 nM | 558 nM | – | – | –
CC[C@H](Nc1ncnc2[nH]cnc12)c1nc2cccc(F)c2c(=O)n1-c1ccccc1 [Idelalisib, reference compound] | – | – | – | – | potency in the PI3K-γ assay compared with clinical compounds (PI3K-γ; FIG. 4B): much less potent; IC50 [1]: > 10000 nM; inhibition of PI3K-δ signaling (AKT and S6RP phosphorylation) [2]: comparable inhibition of, and selectivity for, PI3K-δ signaling
Cc1ccc2c(c1)C(=O)N(C)c1cnc(Nc3ccc(S(N)(=O)=O)cc3)nc1N2C [Compound 14] | 30 nM | 20 nM | 16 nM | 4 nM | –

The next lines start with results.

IC50 (PI3K-γ) | IC50 (PI3K-δ) | IC50 (Aurora A) | IC50 (Aurora B) | Structure (SMILES) | other results
20 nM | 122 nM | 355 nM | 631 nM | C=CC(=O)NC1CCN(S(=O)(=O)c2cccc(Nc3ncc4c(n3)N(C)c3ccc(C)cc3C(=O)N4C)c2)CC1 [Compound 3, N-(1-((3-((5,8,11-trimethyl-6-oxo-6,11-dihydro-5H-benzo[e]pyrimido[5,4-b][1,4]diazepin-2-yl)amino)phenyl)sulfonyl)piperidin-4-yl)acrylamide] | –
438 nM | 343 nM | – | – | C=CC(=O)Nc1cccc(NS(=O)(=O)c2ccc(Nc3ncc4c(n3)N(C)c3ccc(C)cc3C(=O)N4C)cc2)c1 [Compound 8, N-(3-((4-((5,8,11-trimethyl-6-oxo-6,11-dihydro-5H-benzo[e]pyrimido[5,4-b][1,4]diazepin-2-yl)amino)phenyl)sulfonamido)phenyl)acrylamide] | –
96 nM | 306 nM | 49 nM | 80 nM | C=CC(=O)Nc1ccc(NS(=O)(=O)c2ccc(Nc3ncc4c(n3)N(C)c3ccc(C)cc3C(=O)N4C)cc2)cc1 [Compound 6, N-(4-((4-((5,8,11-trimethyl-6-oxo-6,11-dihydro-5H-benzo[e]pyrimido[5,4-b][1,4]diazepin-2-yl)amino)phenyl)sulfonamido)phenyl)acrylamide] | –
39 nM | 328 nM | 188 nM | 130 nM | C=CC(=O)Nc1cccc(NS(=O)(=O)c2cccc(Nc3ncc4c(n3)N(C)c3ccc(C)cc3C(=O)N4C)c2)c1 [Compound 7, N-(3-((3-((5,8,11-trimethyl-6-oxo-6,11-dihydro-5H-benzo[e]pyrimido[5,4-b][1,4]diazepin-2-yl)amino)phenyl)sulfonamido)phenyl)acrylamide] | –
75.9 nM | 108 nM | – | – | Cc1ccc2c(c1)C(=O)N(C)c1cnc(Nc3cccc(S(N)(=O)=O)c3)nc1N2C [Compound 15, 3-((5,8,11-trimethyl-6-oxo-6,11-dihydro-5H-benzo[e]pyrimido[5,4-b][1,4]diazepin-2-yl)amino)benzenesulfonamide] | –
2610 nM | 3250 nM | – | – | Cc1ccc2c(c1)C(=O)N(C)c1cnc(Nc3ccc(S(=O)(=O)N4CCN(C)CC4)cc3)nc1N2C [Compound 11, 5,8,11-trimethyl-2-((4-((4-methylpiperazin-1-yl)sulfonyl)phenyl)amino)-5,11-dihydro-6H-benzo[e]pyrimido[5,4-b][1,4]diazepin-6-one] | –
41 nM | 58 nM | – | – | Cc1ccc2c(c1)C(=O)N(C)c1cnc(Nc3ccc(S(=O)(=O)N4CCC(O)CC4)cc3)nc1N2C [Compound 13, 2-((4-((4-hydroxypiperidin-1-yl)sulfonyl)phenyl)amino)-5,8,11-trimethyl-5,11-dihydro-6H-benzo[e]pyrimido[5,4-b][1,4]diazepin-6-one] | –
123 nM | 48.6 nM | – | – | C=CC(=O)NC1CCN(S(=O)(=O)c2ccc(Nc3ncc4c(n3)N(C)c3ccc(C)cc3C(=O)N4C)cc2)CC1 [Compound 4, N-(1-((4-((5,8,11-trimethyl-6-oxo-6,11-dihydro-5H-benzo[e]pyrimido[5,4-b][1,4]diazepin-2-yl)amino)phenyl)sulfonyl)piperidin-4-yl)acrylamide] | –
